Here are results for 2 molecules from patent publication US20110118218A1, “TREATING HYPERTENSION WITH 25-HYDROXYVITAMIN D3” (priority 2008, published 2011).

Data set [1] can be described thus: Human clinical trial: blood pressure after daily/weekly oral treatment for 4 months. In kind it is in vivo. To be noted: for Diastolic blood pressure (GLM least square mean) / Systolic blood pressure (GLM least square mean): healthy postmenopausal women, 20 μg per day or 140 μg per week oral, repeated measurement analysis over 13 visits adjusted for baseline blood pressure and time; for Effect on blood pressure (in words): mildly hypertensive subjects, none above 146/95 mmHg. From the text:
Each group includes five subjects. They are followed for four months in Ziirich, Switzerland during the winter.
Equimolar quantities of both substances were investigated. […] As the maximum pre-existing baseline concentration of 25-hydroxyvitamin D3 will be 50 nmol/L, it is not anticipated that subjects will approach the range where disturbance in Ca^2+ homeostasis has been observed.
Each dosage was consumed orally at breakfast.
For blood pressure assessments a standard protocol was used (OMRON professional apparatus) to measure diastolic and systolic blood pressure in Week 1 on visit 2 (baseline) and the remaining 4 days of Week 1. The assessments continued at each visit of Weeks 2, 3, 5, 7, 9, 11, 13 and 15.
Treatment duration was 4 months.

For data set [2] the following is noted: cited from earlier work.
Where [3] appears, read: 20 μg per day or 140 μg per week, 4 months, 13 visits, adjusted for baseline blood pressure and time.
[4] abbreviates: daily or weekly treatment, identical dosages.

For `C=C1CC[C@H](O)C/C1=C/C=C1\CCC[C@]2(C)[C@@H]([C@H](C)CCCC(C)C)CC[C@@H]12` [Vitamin D3, cholecalciferol], in data set [1] (4 months), the “Diastolic blood pressure (GLM least square mean)” value stood at 70.3 mmHg and the “Systolic blood pressure (GLM least square mean)” value worked out at 117.2 mmHg. The “Effect on blood pressure (in words)” value in data set [1] was “no effect”. In addition, the “Blood concentration of 25-hydroxyvitamin D3 resulting from ingestion as dietary supplement” value in data set [2] (ingestion of vitamin D3 at the safe upper level (250 μg/day)) is “about 200 nmol/L”.
Take `C=C1CC[C@H](O)C/C1=C/C=C1\CCC[C@]2(C)[C@@H]([C@H](C)CCCC(C)(C)O)CC[C@@H]12` [25-OH D3, 25-hydroxyvitamin D3]: in data set [1] (setting [3]), the “Diastolic blood pressure, change vs. daily/weekly Vitamin D3” value is on record as −1.4 mmHg and the “Systolic blood pressure, change vs. daily/weekly Vitamin D3” value was −6.1 mmHg. Also, in data set [1] (setting [4]), the “Reduction of diastolic blood pressure versus Vitamin D3” value was 1.4 mmHg and the “Reduction of systolic blood pressure versus Vitamin D3” value is 6.1 mmHg. Also, in data set [1] (4 months), the “Diastolic blood pressure (GLM least square mean)” value was 68.9 mmHg and the “Systolic blood pressure (GLM least square mean)” value is on record as 111.1 mmHg. Besides, the “Effect on blood pressure (in words)” value in data set [1] is “very effective reduction of blood pressure”. For the same molecule, the “Blood concentration of 25-hydroxyvitamin D3 at which hypercalcemia may occur” value in data set [2] (in vivo) is given as “greater than 375 nmol/L”.
